Experiment [1] addresses T1, FpvA T660C (Pseudomonas aeruginosa, UniProt P48632, T660C).
T1 construct: expressed in transfected cells; host or cells: P. aeruginosa PA14 ΔfpvA ΔfpvB, plasmid pHERD20T-fpvA T660C, arabinose-induced
The experiment is described as follows: Whole-cell fluorescence quenching, FpvA T660C. The note with it: cells expressing FpvA T660C. It counts as binding. An excerpt:
(§1) To determine the affinity of the siderophores for FpvA and FpvB, we adapted the method from Chakravorty et al. to generate a whole-cell sensor where fluorescence quenching serves as an indicator of ligand interaction ([31]). Siderophore binding triggers conformational changes at the extracellular loops of the TBDT (Fig. 3A). Cys substitutions were introduced at the loops and labeled with a fluorescent maleimide dye. When a ligand binds the transporter, the loops fold inward toward the lumen of the barrel, and changes in the chemical environment surrounding the fluorophore lead to quenching ([31], [32]). Fluorescence recovery occurs once the siderophore is taken up and the loop returns to its original conformation.
Cells were cultured overnight in LB with carbenicillin (200 μg/mL) at 37°C with shaking at 200 rpm. […] Cells were harvested by centrifugation for 5 min and 6,000 × g and resuspended in sterile 1× phosphate-buffered saline (PBS) (pH 7.4); 1× PBS was made from a 10× stock (80 g NaCl, 2 g KCl, 26.8 g Na2 HPO4-7H2O, 2.4 g KH2PO4 in 1 L of deionized H2O) with 10 μM Alexa Fluor 594 C5 maleimide for microscopy or fluorescein-5-maleimide for fluorescence quenching and recovery assays and incubated in the dark at room temperature for 30 min on a shaking incubator at 37°C (200 rpm). […]

Experiment [2] addresses T2, FpvB R648C (Pseudomonas aeruginosa, UniProt A0A0H2ZFZ5, R648C).
T2 sequence (A0A0H2ZFZ5 23-802 R648C): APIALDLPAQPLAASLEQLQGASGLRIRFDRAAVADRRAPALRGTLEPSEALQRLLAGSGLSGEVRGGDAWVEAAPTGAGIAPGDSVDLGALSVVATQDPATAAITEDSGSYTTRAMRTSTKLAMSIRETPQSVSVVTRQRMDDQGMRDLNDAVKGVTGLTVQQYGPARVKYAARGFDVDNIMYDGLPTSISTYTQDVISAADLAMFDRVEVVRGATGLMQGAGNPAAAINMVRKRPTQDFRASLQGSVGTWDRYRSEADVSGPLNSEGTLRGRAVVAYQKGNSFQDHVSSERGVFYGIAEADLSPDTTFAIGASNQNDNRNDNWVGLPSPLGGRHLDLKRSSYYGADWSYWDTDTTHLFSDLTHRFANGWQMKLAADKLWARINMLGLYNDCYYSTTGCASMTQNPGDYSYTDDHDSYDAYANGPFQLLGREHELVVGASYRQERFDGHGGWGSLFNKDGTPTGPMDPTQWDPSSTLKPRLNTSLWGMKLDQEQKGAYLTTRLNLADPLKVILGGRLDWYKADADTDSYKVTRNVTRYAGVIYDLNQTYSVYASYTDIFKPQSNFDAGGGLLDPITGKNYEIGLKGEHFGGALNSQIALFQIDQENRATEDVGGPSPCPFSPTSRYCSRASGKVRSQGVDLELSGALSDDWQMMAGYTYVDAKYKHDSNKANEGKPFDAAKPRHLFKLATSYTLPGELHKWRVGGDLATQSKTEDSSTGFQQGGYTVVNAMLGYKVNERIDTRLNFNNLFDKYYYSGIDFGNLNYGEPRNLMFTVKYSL
The experiment is described as follows: Whole-cell fluorescence quenching, FpvB R648C in quadruple mutant. It counts as binding. The method, then:
(§2) Quenching assays with the two xenosiderophores were repeated for the quadruple TBDT mutant expressing WT FpvB, FpvB R191A R648C, or W347V R648C.
(§3) Cells were cultured overnight in LB with carbenicillin (200 μg/mL) at 37°C with shaking at 200 rpm. Cells were subcultured (1:200 dilution) in 10:90 plus 2% arabinose for 4 h without carbenicillin at 37°C with shaking at 200 rpm. Cells were harvested by centrifugation for 5 min and 6,000 × g and resuspended in sterile 1× phosphate-buffered saline (PBS) (pH 7.4); 1× PBS was made from a 10× stock (80 g NaCl, 2 g KCl, 26.8 g Na2 HPO4-7H2O, 2.4 g KH2PO4 in 1 L of deionized H2O) with 10 μM Alexa Fluor 594 C5 maleimide for microscopy or fluorescein-5-maleimide for fluorescence quenching and recovery assays and incubated in the dark at room temperature for 30 min on a shaking incubator at 37°C (200 rpm). Excess dye was quenched with 1 mM dithiothreitol (DTT) (Sigma) to stop the reaction. Cells were washed 3× with PBS. For fluorescence recovery assays, cells were incubated with 1× PBS plus 0.4% glucose at 37°C with shaking at 200 rpm. Glucose was prepared as a 20% stock (wt/vol) in 1× PBS and filter sterilized. Cells were spun down and washed 3× with 1× PBS and resuspended in 1× PBS for quenching assays and 1× PBS plus 0.4% glucose for fluorescence recovery assays.
(§4) For fluorescence quenching and recovery assays, cells were diluted to an OD600 of 0.1 for both types of assays, and 148 μL was added into wells of a 96-well black plate (Corning). Fluorescence was recorded for 5 min at 1-min intervals at 37°C (BioTek Neo; excitation, 494 nm; emission, 520 nm). After 5 min, 2 μL of each serial dilution for ferrioxamine-Fe^3+, ferrichrome-Fe^3+, and pyoverdine-Fe^3+ or DMSO for vehicle controls was added to each well. Fluorescence was recorded immediately for quenching assays and for 1 h at 1-min intervals for fluorescence recovery assays. Background fluorescence was subtracted from all fluorescence readings and 1-F/F0 was used to calculate the degree of quenching, where F0 is the initial fluorescence. Kd was calculated using GraphPad Prism using a one-site specific binding model or a two-site model. For fluorescence recovery assays, background was subtracted from all fluorescence readings and F/F0 expressed as a percent of control was plotted versus time.

The target in experiment [3] is T3, FpvB R191A R648C (Pseudomonas aeruginosa, UniProt A0A0H2ZFZ5, R191A/R648C).
T3 sequence (A0A0H2ZFZ5 23-802 R191A/R648C): T2 sequence (A0A0H2ZFZ5 23-802 R648C)
The experiment is described as follows: Whole-cell fluorescence quenching, FpvB R191A R648C. It counts as binding. The method, then: as §2, §3, §4

Experiment [4] has as its target T4, FpvB W347V R648C (Pseudomonas aeruginosa, UniProt A0A0H2ZFZ5, R648C/W347V).
T4 sequence (A0A0H2ZFZ5 23-802 W347V/R648C): T2 sequence (A0A0H2ZFZ5 23-802 R648C)
The experiment is described as follows: Whole-cell fluorescence quenching, FpvB W347V R648C. It counts as binding. The method, then: as §2, §3, §4

Experiment [5] concerns PA14 ΔfpvA ΔfpvB pHERD20T-fpvA. The experiment is described as follows: Checkerboard assay TS and siderophores, FpvA expressed. It counts as cell-based, Pseudomonas aeruginosa. Particulars: 10:90 + 2% arabinose. From the text:
(§5) We investigated this hypothesis by treating the ΔfpvA ΔfpvB mutant complemented with fpvA or fpvB with TS and pyoverdine-Fe^3+. If pyoverdine competes with TS for the same binding site in the transporter, a reduction in TS susceptibility would be expected, as competition would decrease entry of the antibiotic into the cell. TS susceptibility decreased >8-fold with increasing concentrations of pyoverdine-Fe^3+ when FpvA was expressed (see Fig. S2A in the supplemental material).
(§6) Supplementary file : FIG S2 Checkerboard assays of the PA14 ΔfpvA ΔfpvB strain complemented with fpvA and fpvB in trans with TS and siderophores. […] Checkerboards of the PA14 ΔfpvA ΔfpvB pHERD20T-fpvB strain with TS and enterobactin (G), ferrioxamine E (H), and arthrobactin (I). Results are averaged from three independent biological replicates. Cells in the assay were grown in 10:90 + 2% arabinose. Download FIG S2, EPS file, 2.2 MB.
Checkerboards (8 rows by 8 columns) were conducted as previously described in a 96-well plate (Nunc) ([13], [14]). TS at 75× the final concentration dissolved in DMSO was added in columns from bottom to top in increasing concentrations. Siderophores at 75× the final concentration dissolved in DSMO were added from in rows from left to right in increasing concentrations. Four columns were used for vehicle controls (DMSO) and sterile controls. […] Plates were sealed to prevent evaporation and incubated at 37°C overnight in a shaking incubator (200 rpm). The next day, the OD600 was determined with a plate reader (Thermo Scientific) and normalized to percent of growth of the vehicle control (DMSO) after subtracting the OD600 from blank media.

Experiment [6] deals with PA14 ΔfpvA ΔfpvB pHERD20T-fpvB. The experiment is described as follows: Checkerboard assay TS and siderophores, FpvB expressed. It counts as cell-based, Pseudomonas aeruginosa. Particulars: 10:90 + 2% arabinose.
Description: as §5, §6
Checkerboards (8 rows by 8 columns) were conducted as previously described in a 96-well plate (Nunc) ([13], [14]). TS at 75× the final concentration dissolved in DMSO was added in columns from bottom to top in increasing concentrations. […] The next day, the OD600 was determined with a plate reader (Thermo Scientific) and normalized to percent of growth of the vehicle control (DMSO) after subtracting the OD600 from blank media.

In experiment [7] the target is T2, FpvB R648C. Briefly: Whole-cell fluorescence quenching, FpvB R648C in ΔfpvA ΔfpvB. It counts as binding.
Description: as §1
Cells were cultured overnight in LB with carbenicillin (200 μg/mL) at 37°C with shaking at 200 rpm. Cells were subcultured (1:200 dilution) in 10:90 plus 2% arabinose for 4 h without carbenicillin at 37°C with shaking at 200 rpm. […] Excess dye was quenched with 1 mM dithiothreitol (DTT) (Sigma) to stop the reaction. Cells were washed 3× with PBS. For fluorescence recovery assays, cells were incubated with 1× PBS plus 0.4% glucose at 37°C with shaking at 200 rpm. Glucose was prepared as a 20% stock (wt/vol) in 1× PBS and filter sterilized. Cells were spun down and washed 3× with 1× PBS and resuspended in 1× PBS for quenching assays and 1× PBS plus 0.4% glucose for fluorescence recovery assays.
as §4

Experiment [8] addresses T2, FpvB R648C. Briefly: Fluorescence recovery assay (siderophore uptake by FpvB). It counts as cell-based. The note with it: siderophore at 1/2 Kd (1/2 Kd2 for ferrioxamine B), recorded for 1 h. The method, then: Cells were equilibrated for 5 min prior to introduction of the siderophores. Fluorescence was recorded every min for 1 h. Carbonyl cyanide m-chlorophenylhydrazone (CCCP) was used as a control to inhibit fluorescence recovery through dissipation of the proton motive force (PMF) ([2], [3]), which is required for uptake.
as §3, with “Glucose was prepared as a 20% stock (wt/vol) in 1× PBS and filter sterilized.” left out
as §4, with “After 5 min, 2 μL of each serial dilution for ferrioxamine-Fe^3+, ferrichrome-Fe^3+, and pyoverdine-Fe^3+ or DMSO for vehicle controls was added to each well.” left out, “For fluorescence recovery assays, background was subtracted from all fluorescence readings and F/F0 expressed as a percent of control was plotted versus time.” left out

Where [9] appears, read: FpvB R648C in quadruple mutant, two-site model.

Starred links: 1 amine or outer side, 2 acyl side, 3 side chain; linkers in the order of their positions; H or OH if unused. Positions of bridges follow the written chain, without caps; N, C: chain ends. Non-standard residues stand in square brackets, D forms with d. Residues, ends and D or L forms follow the SMILES beside them. ξ: configuration not given here. X1 = O=C([C@@H]1CCN=C2C(N[*:1])=Cc3cc(O)c(O)cc3N21)[*:2]; ξOrn(N(OH)CHO) = NC(CCCN(O)C=O)C(=O)O; Suc = O=C(CCC(=O)[*:2])[*:1]; ξK = NCCCCC(N)C(=O)O; ξS = NC(CO)C(=O)O Bounds are passed on as bounds.

T1 sequence (P48632 44-815 T660C): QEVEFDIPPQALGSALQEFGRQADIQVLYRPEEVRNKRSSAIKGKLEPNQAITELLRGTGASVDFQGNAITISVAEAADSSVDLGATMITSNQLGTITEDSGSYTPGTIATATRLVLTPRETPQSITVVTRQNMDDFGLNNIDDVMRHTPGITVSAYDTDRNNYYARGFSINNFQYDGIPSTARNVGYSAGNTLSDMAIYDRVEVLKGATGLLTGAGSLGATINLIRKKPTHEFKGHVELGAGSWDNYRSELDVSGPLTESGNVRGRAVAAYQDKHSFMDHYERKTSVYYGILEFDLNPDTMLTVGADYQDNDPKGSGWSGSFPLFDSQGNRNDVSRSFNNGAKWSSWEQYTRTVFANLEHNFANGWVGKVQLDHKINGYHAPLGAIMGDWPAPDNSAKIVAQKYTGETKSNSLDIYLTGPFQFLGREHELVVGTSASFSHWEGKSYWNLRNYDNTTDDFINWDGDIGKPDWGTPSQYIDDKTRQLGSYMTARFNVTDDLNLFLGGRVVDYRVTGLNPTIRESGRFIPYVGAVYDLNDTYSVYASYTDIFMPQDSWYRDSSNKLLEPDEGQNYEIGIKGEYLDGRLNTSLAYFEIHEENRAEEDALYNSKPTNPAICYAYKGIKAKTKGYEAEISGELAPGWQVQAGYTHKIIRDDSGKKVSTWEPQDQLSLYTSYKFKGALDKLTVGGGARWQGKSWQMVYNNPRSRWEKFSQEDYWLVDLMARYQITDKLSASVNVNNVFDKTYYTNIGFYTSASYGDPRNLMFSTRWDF

Consider ferrichrome-Fe^3+, for which, in experiment [1], the fluorescence quenching was ~ 20%. Moreover, the Kd (commonly the equilibrium constant for the complex coming apart) in experiment [2] (FpvB R648C in ΔfpvA ΔfpvB ΔfiuA ΔfoxA) amounted to 0.0085 ± 0.0008 µg/mL. In addition, the entries for the “increase of Kd by the mutation” value in experiment [3] (R191A versus FpvB R648C) and in experiment [4] (W347V versus FpvB R648C) were 76 fold and over 76 fold, respectively.

Consider `CC(=O)N(O)CCCCCNC(=O)CC(O)(CC(=O)NCCCCCN(O)C(C)=O)C(=O)O` [arthrobactin], for which the “effect of siderophore on TS susceptibility” value (shortened to “effect of siderophore”) in experiment [5] was “None of those siderophores reduced TS susceptibility”.

Regarding `NCCCCC(NC(=O)C(CO)NC(=O)[C@@H]1CCN=C2C(NC(=O)CCC(=O)O)=Cc3cc(O)c(O)cc3N21)C(=O)NCC(=O)NC(CCCN(O)C=O)C(=O)NC1CCCCNC(=O)C(CO)NC(=O)C(CCCN(O)C=O)NC1=O.[Fe+3]` (stereo partly shown) [pyoverdine-Fe^3+] (Suc-[X1][ξS][ξK]G[ξOrn(N(OH)CHO)][ξK][ξOrn(N(OH)CHO)][ξS]; lactam 6-C), in experiment [6], the “effect of siderophore” value was “did not impact TS susceptibility”. The “Kd for FpvB relative to FpvA” value in experiment [7] (higher for FpvB) is 200 fold. Besides, the fluorescence recovery entry in experiment [8] was “No recovery”.

As for `CC(=O)N([O-])CCCCCNC(=O)CCC(=O)N([O-])CCCCCNC(=O)CCC(=O)N([O-])CCCCCN.[Fe+3]` [ferrioxamine B-Fe^3+], the fluorescence quenching entry in experiment [1] is given as “No quenching”. Further, the Kd1 in experiment [7] (FpvB R648C in ΔfpvA ΔfpvB, two-site model, higher-affinity site) is reported as 1.0 × 10^2 ± 50 ng/mL; in experiment [2] (setting [9]) it was 1.0x10^2 ± 59 ng/mL. Moreover, the Kd2 in experiment [7] (FpvB R648C in ΔfpvA ΔfpvB, two-site model, lower-affinity site) worked out at 270000 ± 47000 ng/mL; in experiment [2] (setting [9]) it was 370000 ± 95000 ng/mL. The dissociation constant (Kd) in experiment [3] (FpvB R191A R648C, one-site model) turned out to be 300 ± 43 µg/mL; in experiment [4] (FpvB W347V R648C, one-site model) it was 490 ± 68 µg/mL.

As for `O=C(N[C@H]1COC(=O)[C@@H](NC(=O)c2cccc(O)c2O)COC(=O)[C@@H](NC(=O)c2cccc(O)c2O)COC1=O)c1cccc(O)c1O` [enterobactin], the “effect of siderophore” value in experiment [5] is “None of those siderophores reduced TS susceptibility”.
